Where a name gives a salt, the structure may show the parent alone. Read-outs that look alike come from different tables or passages of the source.
What was measured:
db/db mice = test: In vivo assay in db/db mice (postprandial glycemia); conditions: 30 mg/kg per os, 4 hrs after drug administration, percentage of control (group 1: vehicle treated mice)
Method: The following assay aims at determining the anti-diabetic effect of the test compounds of formula (I) in a model of postprandial glycemia in db/db mice, in vivo.
The assay was performed as follows:
A total of 18 db/db mice (about 8-9 weeks; obtained from IFFACREDO, l'Arbreste, France) were fasted during 20 hours.
2 groups, each consisting of 6 animals were formed: • Group 1: The animals were administered (per os) a dose of 10 mL/kg of vehicle (control). • Group 2: The animals were administered (per os) a dose of 30 mg/kg of the test compound according to formula (I) solubilized in the vehicle.
After oral administration of the compounds of formula (I) solubilized or suspended in CarboxyMethylCellulose (0.5%), Tween 20 (0.25%) and water as vehicle, the animals had access to conmnercial food (D04, UAR, Villeinoisson/Orge, France) ad libitum. The diabetic state of the mice was verified by determining the blood glucose level before drug administration. Blood glucose and serum insulin levels were then determined 4 hrs after drug administration.
The determination of the blood glucose level was performed using a glucometer (Precision Q.I.D., Medisense, Abbot, ref. 212.62.31).
The determination of the Insulin level was performed using an ELISA kit (Crystal CHEM, Ref. INSK R020).
Changes in blood glucose and serum insulin of drug treated mice were expressed as a percentage of control (group 1: vehicle treated mice).

PTP-H1 = target: T1, PTP-H1 (Homo sapiens, UniProt P26045); test: PTP Enzyme Assay (DiFMUP), PTP-H1; type: biochemical; conditions: 5 μM DiFMUP, catalytic core of human recombinant PTP; read-out: IC50 value in respect of PTP-H1
T1 construct: using the catalytic core of a human recombinant PTP as the enzyme; made in house
T1 sequence (P26045 646-901 limits assumed): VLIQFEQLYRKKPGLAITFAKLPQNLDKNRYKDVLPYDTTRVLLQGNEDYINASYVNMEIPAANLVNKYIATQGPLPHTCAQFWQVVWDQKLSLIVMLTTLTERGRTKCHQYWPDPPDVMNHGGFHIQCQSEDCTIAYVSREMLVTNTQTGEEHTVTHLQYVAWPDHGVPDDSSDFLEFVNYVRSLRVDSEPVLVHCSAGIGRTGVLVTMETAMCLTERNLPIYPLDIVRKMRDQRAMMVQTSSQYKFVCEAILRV
Method: (§1) The PTP Enzyme Assay aims at determining the extent of inhibition of PTP's, e.g. of PTP1B, SEP-1, SHP-2, GLEPP-1 or PTP-H1 in the presence of a test compound of lo formula (I). The inhibition is illustrated by IC50 values which denote the concentration of test compound necessary to achieve an inhibition of 50% of said PTP's using the following concentration of the PTP substrate DiFMUP: • 5 μM DiFMUP for PTP1B and PTP-H1; • 20 μM DiFMUP for SHP-1 and SHP-2; • 30 μM DiFMUP for GLEPP-1. a) PTPs Cloning […]
(§2) Assays were performed in a 96 well plate format, using the catalytic core of a human recombinant PTP as the enzyme and 6,8-DiFluoro-4-MethylUmbelliferyl Phosphate (DiFMUP, Molecular Probes, D-6567) as a substrate. […] The reaction ran for 30 minutes at room temperature before reading the fluorescence intensity (integral or intensity) on a Perkin-Elmer Victor 2 spectrofluorimeter (excitation of 6,8-difluoro-7-hydroxy coumarin is at 355 nm, the emission at 460 nm, for 0.1 s). The percentage of inhibition is determined by measuring the relative fluorescence ion absence of a test compound (PTP inhibitor), i.e. with the solvent alone (5% DMSO). The IC50 values for inhibition were determined in triplicates.

SHP-1 = target: T2, SHP-1 (Homo sapiens, UniProt P29350); test: PTP Enzyme Assay (DiFMUP), SHP-1; type: biochemical; conditions: 20 μM DiFMUP, catalytic core of human recombinant PTP; read-out: IC50 value in respect of SHP-1
T2 construct: using the catalytic core of a human recombinant PTP as the enzyme; made in house
T2 sequence (P29350 244-515 limits assumed): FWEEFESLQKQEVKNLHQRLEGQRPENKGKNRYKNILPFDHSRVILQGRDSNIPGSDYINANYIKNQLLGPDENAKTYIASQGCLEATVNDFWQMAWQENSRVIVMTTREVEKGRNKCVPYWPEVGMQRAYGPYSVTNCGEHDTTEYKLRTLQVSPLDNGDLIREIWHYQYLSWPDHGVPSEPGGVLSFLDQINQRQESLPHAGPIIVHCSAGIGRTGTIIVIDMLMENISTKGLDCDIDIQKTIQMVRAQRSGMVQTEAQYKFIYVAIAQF
Method: as §1, §2

PTP1B = target: T3, PTP1B (Homo sapiens, UniProt P18031); test: PTP Enzyme Assay (DiFMUP), PTP1B; type: biochemical; conditions: 5 μM DiFMUP, catalytic core of human recombinant PTP; read-out: IC50 value in respect of PTP1B
T3 construct: using the catalytic core of a human recombinant PTP as the enzyme; made in house
T3 sequence (P18031 3-277 limits assumed): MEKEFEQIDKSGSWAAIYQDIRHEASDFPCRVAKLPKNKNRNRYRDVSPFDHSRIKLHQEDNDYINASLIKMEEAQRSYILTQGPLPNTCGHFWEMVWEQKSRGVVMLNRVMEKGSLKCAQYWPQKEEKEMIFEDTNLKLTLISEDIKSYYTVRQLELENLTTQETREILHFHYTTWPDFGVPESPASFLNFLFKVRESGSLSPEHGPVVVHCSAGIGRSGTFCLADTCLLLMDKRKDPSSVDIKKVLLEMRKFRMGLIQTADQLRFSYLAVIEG
Method: The PTP Enzyme Assay aims at determining the extent of inhibition of PTP's, e.g. of PTP1B, SEP-1, SHP-2, GLEPP-1 or PTP-H1 in the presence of a test compound of lo formula (I). The inhibition is illustrated by IC50 values which denote the concentration of test compound necessary to achieve an inhibition of 50% of said PTP's using the following concentration of the PTP substrate DiFMUP: • 5 μM DiFMUP for PTP1B and PTP-H1; • 20 μM DiFMUP for SHP-1 and SHP-2; • 30 μM DiFMUP for GLEPP-1. a) PTPs Cloning
The cloning and expression of the catalytic domain e.g. of PTP1B, may be performed as described in J. Biol. Chem. 2000, 275(13), pp 9792-9796.
(§3) The DiFMUP assay allows to follow the dephosphorylation of DiFMUP (6,8-DiFluoro-4-MethylUmbelliferyl Phosphate)—which is the PTP substrate—mediated by PTP into its stable hydrolysis product, i.e. DiFMU (6,8-difluoro-7-hydroxy coumarin). Due to its rather low pKa and its high quantum yield, DiFMU allows to measure both acidic and alkaline phosphatase activities with a great sensitivity.
as §2, with “substrate. Compounds to be tested were dissolved in 100% DMSO at a concentration of 2 mM. Subsequent dilutions of the test compounds (to yield a concentration of 100, 30, 10, 3, 1,0.3, 0.1, 0.03, 0.01, 0.001 μM) were performed in 60% DMSO manually. 8 μl of diluted compound or vehicle (60% DMSO=control) was distributed to a black Costar 96 well plate.” for “substrate.”

GLEPP-1 = target: T4, GLEPP-1 (Homo sapiens, UniProt Q16827); test: PTP Enzyme Assay (DiFMUP), GLEPP-1; type: biochemical
T4 construct: using the catalytic core of a human recombinant PTP as the enzyme; made in house
T4 sequence (Q16827 938-1195 limits assumed): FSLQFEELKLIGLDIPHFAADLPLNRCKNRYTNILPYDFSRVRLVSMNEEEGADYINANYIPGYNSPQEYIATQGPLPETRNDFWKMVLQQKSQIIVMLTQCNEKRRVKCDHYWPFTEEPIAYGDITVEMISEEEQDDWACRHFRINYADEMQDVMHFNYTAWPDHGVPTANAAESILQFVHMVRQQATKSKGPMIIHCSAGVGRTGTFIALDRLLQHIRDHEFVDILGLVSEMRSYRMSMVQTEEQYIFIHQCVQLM
Source text: The PTP Enzyme Assay aims at determining the extent of inhibition of PTP's, e.g. of PTP1B, SEP-1, SHP-2, GLEPP-1 or PTP-H1 in the presence of a test compound of lo formula (I).
as §3
Compounds to be tested were dissolved in 100% DMSO at a concentration of 2 mM. Subsequent dilutions of the test compounds (to yield a concentration of 100, 30, 10, 3, 1,0.3, 0.1, 0.03, 0.01, 0.001 μM) were performed in 60% DMSO manually. 8 μl of diluted compound or vehicle (60% DMSO=control) was distributed to a black Costar 96 well plate. 42 μl of human recombinant PTP enzyme diluted in assay buffer (20 mM Tris HCl pH 7.5, 0.01% IGEPAL CA-630, 0.1 mM ethylenediaminetetracetic acid, 1 mM DL-Dithiothreitol) can be added to the dilutions of compound or vehicule (distributed to a black Costar 96-well plate), followed by 50 μl of DiFMUP diluted in the assay buffer. The reaction ran for 30 minutes at room temperature before reading the fluorescence intensity (integral or intensity) on a Perkin-Elmer Victor 2 spectrofluorimeter (excitation of 6,8-difluoro-7-hydroxy coumarin is at 355 nm, the emission at 460 nm, for 0.1 s). The percentage of inhibition is determined by measuring the relative fluorescence ion absence of a test compound (PTP inhibitor), i.e. with the solvent alone (5% DMSO). The IC50 values for inhibition were determined in triplicates.

SHP-2 = target: T5, SHP-2 (Homo sapiens, UniProt Q06124); test: PTP Enzyme Assay (DiFMUP), SHP-2; type: biochemical; conditions: 20 μM DiFMUP, catalytic core of human recombinant PTP; read-out: IC50 value in respect of SHP-2
T5 construct: using the catalytic core of a human recombinant PTP as the enzyme; made in house
T5 sequence (Q06124 247-517 limits assumed): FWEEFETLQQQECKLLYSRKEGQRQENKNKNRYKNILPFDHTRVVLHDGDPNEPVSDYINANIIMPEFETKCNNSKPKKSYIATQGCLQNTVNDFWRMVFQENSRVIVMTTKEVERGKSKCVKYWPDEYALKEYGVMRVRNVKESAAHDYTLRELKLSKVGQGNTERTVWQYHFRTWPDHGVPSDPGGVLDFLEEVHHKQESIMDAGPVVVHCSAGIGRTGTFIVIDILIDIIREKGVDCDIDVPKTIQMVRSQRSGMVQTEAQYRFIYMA
Method: as §1, §2

[1] = 30 μM DiFMUP, catalytic core of human recombinant PTP, read-out: IC50 value in respect of GLEPP-1

| Compound | Decrease in blood glucose (db/db mice) [%] | Decrease in serum insulin (db/db mice) [%] | IC50 (PTP1B) [nM] | IC50 (GLEPP-1; [1]) [nM] | also measured |
| --- | --- | --- | --- | --- | --- |
| 5-[(1-{4-[(4-butylphenyl)ethynyl]phenyl}pentyl)oxy]-2-hydroxybenzoic acid [Example 16] | 37 | 28 |  |  |  |
| CCCCc1ccc(C#Cc2ccc(CN(Cc3ccc(OCC(=O)O)cc3)S(=O)(=O)/C=C/c3ccccc3)cc2)cc1 [Example 8, {4-[({4-[(4-butylphenyl)ethynyl]benzyl}{[(E)-2-phenylvinyl]sulfonyl}-amino)methyl]phenoxy}acetic acid] |  |  | 510 | 620 | IC50 (PTP-H1): 9640 nM; IC50 (SHP-1): 820 nM; IC50 (SHP-2): 800 nM |
| CCCCCCN(Cc1ccc(C#Cc2ccc(CCCC)cc2)cc1)C(=O)c1ccc(O)c(C(=O)O)c1 [Example 19, 5-[{{4-[(4-butylphenyl)ethynyl]benzyl}(hexyl)amino]carbonyl}-2-hydroxybenzoic acid, N-methyl-D-glucamine (i.e. 1-deoxy-1-(methylamino)-glucitol) salt] | 20 | 43 |  |  |  |
| CCCCCCN(Cc1ccc(C#Cc2ccccc2)cc1)c1ccc(F)c(C(=O)O)c1 [Example 30, 2-fluoro-5-{hexyl[4-(phenylethynyl)benzyl]amino}benzoic acid, N-methyl-D-glucamine (i.e. 1-deoxy-1-(methylamino)glucitol) salt] |  |  | 800 |  | IC50 (GLEPP-1): 860 nM |
| CCCCc1ccc(C#Cc2ccc(CN(CCC(C)(C)C)c3ccc(F)c(C(=O)O)c3)cc2)cc1 [Example 35, 5-[{4-[(4-butylphenyl)ethynylbenzyl}(3,3-dimethylbutyl)amino]-2-fluorobenzoic acid, N-methyl-D-glucamine (i.e. 1-deoxy-1-(methylamino)glucitol)salt] |  |  | 80 | 210 |  |
| CCCCCCN(C(=O)c1ccc(C#Cc2ccc(CCCC)cc2)cc1)c1ccc(F)c(C(=O)O)c1 [Example 55, 5-[{4-[(4-butylphenyl)ethynyl]benzoyl}(hexyl)amino]-2-fluorobenzoic acid, N-methyl-D-glucamine (i.e. 1-deoxy-1-(methylamino)glucitol)salt] | 46 | 75 |  |  |  |
